Test results reported in patent publication US20190010217A1, “MOBILIZING HIV-INFECTED CELLS FROM LYMPHATIC RESERVOIRS” (INDIANA UNIVERSITY RESEARCH & TECHNOLOGY CORPORATION, priority 2016, published 2019).
Entries after “also recorded” stand apart in the source; their conditions may differ.

Experiments:
Nef-ER T1 cells = assay: Adhesion of Nef-ER T cells to endothelial cells (HUVEC co-culture, FACS); format: cell-based; settings: HIV-Nef expressing T cells (Nef-ER T1) on HUVECs; 10 μM atorvastatin pre-incubation at least 12 hours; FIG. 5
Description: Nef was activated in Nef-ER cells by culturing them with RPMI1640+10% FBS (fetal bovine serum) and 1 μM 4-hydrotamoxifen for at least 6 hours or overnight at 37° C. For inhibitor use, the Nef-ER cells were pre-incubated for at least 12 hours with 10 μM atorvastatin. Other inhibitors may require shorter pre-incubations.
Approximately 100K HUVECS were seeded per well in a collagen-coated 6-well plate. Cells were incubated overnight in EGM2(LONZA) medium. Nef-ER cells were stained using 5 μM Calcein AM (Ref C3100MP, Fischer Scientific) in 1 mL of staining solution and incubated for 30 minutes at 37° C. The cells were centrifuged at 300 g for 5 min, and the cell pellet was resuspended in 2 mL RPMI+10% FBS. Cells were centrifuged at 300 g for 5 min and the supernatant was removed.
After staining, 1 μL of 1 mM 4-Hydrotamoxifen per ml of EGM2(LONZA) medium was added for final concentration of 1 μM. Stained T-cells were resuspended in EGM2 media at final concentration of 250,000 cells per ml. 250,000 stained T-cells were added to each well of 6-well plate of HUVECs for co-culture (with or without 10 μM atorvastatin to maintain inhibition) and incubated for 60 minutes. The plate was gently shaken one time after 30 minutes. Cells were washed very gently 3 times with PBS (phosphate buffered saline). Cells were then trypsinized and analyzed by fluorescence activated cell sorting (FACS).

GPCRs-Gαi signaling = settings: pretreatment of lymphocytes with PTX; cited from earlier work
S1P1 = S1P1 (Homo sapiens, UniProt P21453); assay: Beta arrestin-TANGO assay (luciferase reporter) in HTLA cells transfected with Nef
Chain of S1P1 (P21453 whole entry): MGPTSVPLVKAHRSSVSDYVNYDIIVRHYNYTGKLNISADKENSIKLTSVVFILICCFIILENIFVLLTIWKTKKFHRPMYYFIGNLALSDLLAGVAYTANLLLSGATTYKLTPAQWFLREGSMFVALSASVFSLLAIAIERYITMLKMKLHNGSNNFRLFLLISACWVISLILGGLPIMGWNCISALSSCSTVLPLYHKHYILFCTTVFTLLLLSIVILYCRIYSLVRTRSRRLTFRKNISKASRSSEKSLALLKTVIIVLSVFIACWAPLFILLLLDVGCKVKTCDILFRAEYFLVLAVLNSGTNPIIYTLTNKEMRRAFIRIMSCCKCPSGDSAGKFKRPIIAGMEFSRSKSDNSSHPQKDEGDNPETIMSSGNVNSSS
Description: The role of beta arrestin in GPCR regulation, including S1P1 allows for the design and use of an S1P1 Arrestin-Tango expressing cell line (TANGO construct commercially available from AddGene) to test S1P1 signaling and its inhibitors. […] Upon activation of the S1P1 by an agonist, β-arrestin is recruited to the C-terminus of the receptor. This is followed by cleavage of the GPCR fusion protein at the TEV protease site. Cleavage results in the release of the tTA transcription factor, which after transport to the nucleus, activates transcription of the luciferase reporter gene. Thus, potential SNP1 inhibitors can be screened using the S1P1 Arresting Tango assay looking for an increase of luciferase activity indicating an increase in S1P1 signalling.
The role of beta arrestin in GPCR regulation, including S1P1, allows for the design and use of an S1P1 Arrestin-Tango expressing cell line (TANGO construct commercially available from AddGene) to test S1P1 signaling and its inhibitors. […] Upon activation of the S1P1 by an agonist, β-arrestin is recruited to the C-terminus of the receptor. This is followed by cleavage of the GPCR fusion protein at the TEV protease site. Cleavage results in the release of the tTA transcription factor, which after transport to the nucleus, activates transcription of the luciferase reporter gene.
Specifically, HTLA cells were transfected with NEF wt and analyzed for luciferase activity in response to increasing concentrations of sphingosine-phosphate (S1P).

CC(C)c1c(C(=O)Nc2ccccc2)c(-c2ccccc2)c(-c2ccc(F)cc2)n1CC[C@@H](O)C[C@@H](O)CC(=O)O [statin, atorvastatin]
T cell adhesion (Nef-ER T1 cells): reduces T cell adhesion

Pertussis toxin
retention of T cells in lymph nodes by fingolimod (GPCRs-Gαi signaling): prevented the retention of T cells in lymph nodes

sphingosine-phosphate [S1P]
β-arrestin recruitment (luciferase activity) in response to increasing concentrations (S1P1; HTLA cells transfected with NEF wt, increasing concentrations of S1P, FIG. 7): more activation | β-arrestin activation (luciferase activity) (S1P1; HTLA cells transfected with Nef, treated with 1mM S1P and/or FTY720, FIG. 8): significantly more activation; also recorded: increase in β-arrestin activation
